Values of other authors as cited in US20210251906A1, “[…]-RELEASE FORMULATIONS” (Mylan Inc., priority 2018, published 2021).

Key:
[1] = in water and in basic and acidic aqueous solutions
[2] = in vivo

Structure (SMILES): CC(C)C[C@H](CN)CC(=O)O [Pregabalin, (S)-3-(aminomethyl)-5-methylhexanoic acid]
- Solubility [1]: freely soluble
- Elimination half-life [2]: about 6.3 hours
